# Values quoted from earlier work in patent publication US20120302534A1, “DERIVATIVES OF BETULIN” (priority 2010, published 2012).
# Test system: HIV
smiles,measurement,setting,value
C=C(C)[C@@H]1CC[C@]2(C(=O)O)CC[C@]3(C)[C@H](CC[C@@H]4[C@@]5(C)CC[C@H](OC(=O)CC(C)(C)C(=O)O)C(C)(C)[C@@H]5CC[C@]43C)[C@@H]12 [Bevirimat],reduced HIV viral load by a mean of,"patients who achieved trough levels of >=20 μg/mL and without key baseline Gag polymorphisms at Q369, V370 or T371",1.3 log10/mL
same,viral load reduction versus patients without Gag polymorphisms,"users with Gag polymorphisms at Q369, V370 or T371",significantly lower load reductions
